According to patent publication US8362022B2, “Selective subtype alpha 2 adrenergic agents and methods for use thereof” (Allergan, Inc., priority 2008, dated 2013):
Read-outs that look alike come from different tables or passages of the source.

Legend:
Assay type in all cases: cell-based
alpha 2B receptor = target: T1, alpha 2B receptor (Homo sapiens, UniProt P18089); test: RSAT assay (Receptor Selection and Amplification Technology), Alpha 2B; conditions: for Intrinsic Activity efficacy Alpha 2B: value in parentheses, ratio of maximal effect to that of brimonidine
T1 construct: expressed in transfected cells; host or cells: NIH-3T3
T1 sequence (P18089 1-450): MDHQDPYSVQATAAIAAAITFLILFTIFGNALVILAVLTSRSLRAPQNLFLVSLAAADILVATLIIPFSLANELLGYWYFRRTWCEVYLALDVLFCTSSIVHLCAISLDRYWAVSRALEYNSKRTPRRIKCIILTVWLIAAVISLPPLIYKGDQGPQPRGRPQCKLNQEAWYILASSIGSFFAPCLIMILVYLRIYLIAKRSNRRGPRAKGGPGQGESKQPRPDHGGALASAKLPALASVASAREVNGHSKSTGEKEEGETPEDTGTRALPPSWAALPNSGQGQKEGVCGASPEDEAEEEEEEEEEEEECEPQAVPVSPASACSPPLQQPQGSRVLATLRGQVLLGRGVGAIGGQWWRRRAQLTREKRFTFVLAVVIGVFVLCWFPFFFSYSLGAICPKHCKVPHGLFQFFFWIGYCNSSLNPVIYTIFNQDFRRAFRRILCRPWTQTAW
Method: (§1) The RSAT assay measures a receptor-mediated loss of contact inhibition that results in selective proliferation of receptor-containing cells in a mixed population of confluent cells. The increase in cell number is assessed with an appropriate transfected marker gene such as β-galactosidase, the activity of which can be easily measured in a 96-well format. Receptors that activate the G protein, Gq, elicit this response. Alpha 2 receptors, which normally couple to Gi, activate the RSAT response when coexpressed with a hybrid Gq protein that has a Gi receptor recognition domain, called Gq/i5.
(§2) NIH-3T3 cells are plated at a density of 2×10^6 cells in 15 cm dishes and maintained in Dulbecco's modified Eagle's medium supplemented with 10% calf serum. One day later, cells are cotransfected by calcium phosphate precipitation with mammalian expression plasmids encoding p-SV-β-galactosidase (5-10 μg), receptor (1-2 μg) and G protein (1-2 μg). 40 μg salmon sperm DNA may also be included in the transfection mixture. […] Cells are thawed and 100 μl added to 100 μL aliquots of various concentrations of drugs in triplicate in 96-well dishes. Incubations continue 72-96 hr at 37° C. After washing with phosphate-buffered saline, β-galactosidase enzyme activity is determined by adding 200 μL of the chromogenic substrate (consisting of 3.5 mM o-nitrophenyl-β-D-galactopyranoside and 0.5% nonidet P-40 in phosphate buffered saline), incubating overnight at 30° C. and measuring optical density at 420 nm. The absorbance is a measure of enzyme activity, which depends on cell number and reflects a receptor-mediated cell proliferation. The efficacy or intrinsic activity is calculated as a ratio of the maximal effect of the drug to the maximal effect of a standard full agonist for each receptor subtype. Brimonidine, the chemical structure of which is shown below, is used as the standard agonist for the alpha 2B and alpha 2C receptors. […] NA stands for “not active” at concentrations less than 3-10 micromolar.

Alpha 1A = target: T2, Alpha 1A (Homo sapiens, UniProt P35348); test: RSAT assay (Receptor Selection and Amplification Technology), Alpha 1A; conditions: value in parentheses, ratio of maximal effect of drug to maximal effect of standard full agonist
T2 sequence (P35348 1-466): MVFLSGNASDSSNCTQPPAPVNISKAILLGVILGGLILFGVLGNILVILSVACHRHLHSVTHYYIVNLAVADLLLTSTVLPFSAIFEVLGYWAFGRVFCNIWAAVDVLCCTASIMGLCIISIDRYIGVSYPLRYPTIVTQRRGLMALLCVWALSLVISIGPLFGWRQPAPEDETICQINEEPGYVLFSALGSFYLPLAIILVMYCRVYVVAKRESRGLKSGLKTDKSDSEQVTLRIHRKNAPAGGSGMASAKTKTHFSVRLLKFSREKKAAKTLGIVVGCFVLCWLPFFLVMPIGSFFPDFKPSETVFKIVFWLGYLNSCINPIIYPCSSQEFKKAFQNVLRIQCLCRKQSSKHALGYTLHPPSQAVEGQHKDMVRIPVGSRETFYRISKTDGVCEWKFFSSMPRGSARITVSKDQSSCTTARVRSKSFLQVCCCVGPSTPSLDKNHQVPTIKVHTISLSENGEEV
Method: as §1, §2

alpha 2C receptor = target: T3, alpha 2C receptor (Homo sapiens, UniProt P18825); test: RSAT assay (Receptor Selection and Amplification Technology), Alpha 2C
T3 construct: expressed in transfected cells; host or cells: NIH-3T3
T3 sequence (P18825 1-462): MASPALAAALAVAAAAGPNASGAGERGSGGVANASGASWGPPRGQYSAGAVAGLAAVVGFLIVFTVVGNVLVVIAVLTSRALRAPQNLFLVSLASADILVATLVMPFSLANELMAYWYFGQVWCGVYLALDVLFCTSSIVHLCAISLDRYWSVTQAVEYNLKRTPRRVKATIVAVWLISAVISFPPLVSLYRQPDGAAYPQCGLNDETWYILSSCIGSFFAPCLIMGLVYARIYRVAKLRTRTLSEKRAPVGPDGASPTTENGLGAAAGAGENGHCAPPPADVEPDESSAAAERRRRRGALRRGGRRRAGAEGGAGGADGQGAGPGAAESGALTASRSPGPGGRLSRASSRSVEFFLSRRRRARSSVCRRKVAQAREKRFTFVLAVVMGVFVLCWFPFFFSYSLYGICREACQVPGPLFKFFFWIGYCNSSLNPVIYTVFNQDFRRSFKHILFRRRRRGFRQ
Method: as §1, §2

[1] = RSAT, Table 2, read-out: Potency nM (EC50) Alpha 2B

| SMILES | EC50 (alpha 2B receptor; [1]) [nM] | Intrinsic Activity efficacy Alpha 2B (alpha 2B receptor; RSAT, Table 2) | further results |
| --- | --- | --- | --- |
| c1ccc(C(Cc2cccnc2)NC2=NCCN2)cc1 (stereo not drawn) | 16 | 0.74 |  |
| Cc1cccc(C(Cc2ccccn2)NC2=NCCO2)c1C (stereo not drawn) | 6.7 | 0.93 |  |
| Clc1cccc(C(Cc2cccnc2Br)NC2=NCCO2)c1 (stereo not drawn) | 1.3 | 1.05 |  |
| Clc1cccc(C(Cc2cccnc2Cl)NC2=NCCO2)c1 (stereo not drawn) | 0.48 | 1.01 |  |
| Cc1cccc(C(Cc2cccnc2Cl)NC2=NCCO2)c1 (stereo not drawn) | 0.06 | 0.88 |  |
| Fc1cccc(C(Cc2cccnc2Cl)NC2=NCCO2)c1 (stereo not drawn) | 0.09 | 0.87 |  |
| Clc1ncccc1CC(NC1=NCCO1)c1cccc(Br)c1 (stereo not drawn) | 0.14 | 1.01 |  |
| Fc1ncccc1CC(NC1=NCCO1)c1cccc(Cl)c1 (stereo not drawn) | 0.21 | 0.81 |  |
| Cc1cncc(CC(NC2=NCCO2)c2cccc(Cl)c2)c1 (stereo not drawn) | 4 | 1.12 |  |
| Cc1cncc(CC(NC2=NCCO2)c2cccc(C)c2)c1 (stereo not drawn) | 3 | 1.1 |  |
| c1ccc(C(Cc2cccnc2)NC2=NCCO2)cc1 (stereo not drawn) |  | 0.76 | EC50 (alpha 2B receptor): 4.5 nM |
| COc1cccc(C(Cc2cccnc2)NC2=NCCO2)c1 (stereo not drawn) | 56 | 0.65 |  |
| Clc1cccc(C(Cc2cccnc2)NC2=NCCO2)c1Cl (stereo not drawn) | 5.6 | 0.89 |  |
| Cc1cccc(C(Cc2cccnc2)NC2=NCCO2)c1 (stereo not drawn) | 8.2 | 1.24 |  |
| Cc1c(Br)cncc1CC(NC1=NCCO1)c1cccc(Cl)c1 (stereo not drawn) | 1.9 | 1.35 |  |
| Cc1cccc(C(Cc2cncc(Br)c2C)NC2=NCCO2)c1 (stereo not drawn) | 2.7 | 1.02 |  |
| Cc1cncc(CC(NC2=NCCO2)c2cccc(Cl)c2)c1C (stereo not drawn) | 8.5 | 0.9 |  |
| Cc1cccc(C(Cc2cncc(C)c2C)NC2=NCCO2)c1 (stereo not drawn) | 3.9 | 1.11 |  |
| Cc1c(Cl)cncc1CC(NC1=NCCO1)c1cccc(Cl)c1 (stereo not drawn) | 5.6 | 1.08 |  |
| c1ccc(C(Cc2ccncc2)N=C2NCCN2)cc1 (stereo not drawn) [Compound 3, N-(Imidazolidin-2-ylidene)-1-phenyl-2-(pyridin-4-yl)ethanamine] |  |  | Intrinsic Activity efficacy Alpha 1A (Alpha 1A): 0.63 |
| Cc1cccc(C(Cc2ccncc2)N=C2NCCN2)c1C (stereo not drawn) [Compound 5, 1-(2,3-Dimethylphenyl)-N-(imidazolidin-2-ylidene)-2-(pyridin-4-yl)ethanamine] |  |  | EC50 (alpha 2B receptor): 3.1 nM; Intrinsic Activity efficacy Alpha 2B (alpha 2B receptor; RSAT, Table 1): 1.15; EC50 (alpha 2C receptor): 8.4 nM; Intrinsic Activity efficacy Alpha 2C (alpha 2C receptor; RSAT, value in parentheses, ratio of maximal effect to that of brimonidine): 0.49 |
| Clc1cccc(C(Cc2ccncc2)/N=C2/NCCO2)c1 (stereo not drawn) [Compound 8, 1-(3-Chlorophenyl)-N-(oxazolidin-2-ylidene)-2-(pyridin-4-yl)ethanamine] |  |  | Intrinsic Activity efficacy Alpha 1A (Alpha 1A): 1.4 |
| COc1ccccc1C(Cc1ccncc1)N=C1NCCN1 (stereo not drawn) [Compound 10, N-(Imidazolidin-2-ylidene)-1-(2-methoxyphenyl)-2-(pyridin-4-yl)ethanamine] |  |  | Intrinsic Activity efficacy Alpha 1A (Alpha 1A): 1.0 |
| Fc1c(Cl)cccc1C(Cc1ccncc1)/N=C1/NCCO1 (stereo not drawn) [Compound 19, 1-(3-Chloro-2-fluorophenyl)-N-(oxazolidin-2-ylidene)-2-(pyridin-4-yl)ethanamine] |  |  | Intrinsic Activity efficacy Alpha 1A (Alpha 1A): 1.27 |
| Fc1c(Cl)cccc1C(Cc1ccncc1)N=C1NCCN1 (stereo not drawn) [Compound 20, 1-(3-Chloro-2-fluorophenyl)-N-(imidazolidin-2-ylidene)-2-(pyridin-4-yl)ethanamine] |  |  | Intrinsic Activity efficacy Alpha 1A (Alpha 1A): 0.6 |
| Cc1cccc(C(Cc2cccnc2)/N=C2/NCCS2)c1C (stereo not drawn) [Compound 22, 1-(2,3-Dimethylphenyl)-2-(pyridin-3-yl)-N-(thiazolidin-2-ylidene)ethanamine] |  |  | Intrinsic Activity efficacy Alpha 1A (Alpha 1A): 0.7 |
